In patent publication US4386103A, “Dichloroamino acid derivatives useful as potent germicidal and fungicidal agents” (Merck & Co., Inc., priority 1981, dated 1983):

Key:
Assay type in all cases: cell-based
[1] = test system: Staphylococcus epidermidis; experiment: Contact germicidal screen, Staphylococcus epidermidis ATCC No. 12228
Procedure: (§1) The organisms used in the contact germicidal screen are all maintained as stock cultures on nutrient agar […] 4° C. They are transferred and biochemically diagnosed monthly. The five organisms used are: The media used are: […] Overnight cultures of the test organisms are grown in tryptose phosphate broth. After 15-16 hours, the cultures are centrifuged at […] for 15 minutes, and the supernatant replaced with fresh warm (37° C.) media. After two hours of incubation, the absorbance of the culture at 650 nm is determined and diluted with nutrient broth to 1×10^7 colony forming units per ml (using a previous determined standard curve: colony forming units/ml vs. absorbance at 650). The diluted cultures are maintained at 4°-8° C. throughout the screen. The compounds are weighed into sterile 100 ml volumetric flasks, and immediately before screening dissolved in one of the following buffers: 0.1 M NaOAc pH 4.6 or 0.1 M NaH2 PO4 pH 7.0. If solubility poses a problem, 10-30% methanol is used to effect solution. Two denaturing agents are also tested: […] Horse Serum restored with 100 ml distilled water and 10% Trition×100. When used, 2.5 ml of the denaturing agent is mixed with 2.5 ml of double strength test solution thirty minutes before the bacterial suspension is added. The screen is initiated when 0.2 ml of the bacterial suspension is added to 5.0 ml of the test solution contained in a sterile 25 ml glass stoppered flask. At intervals of 0.5, 2.5, 5.0, 10.0 and 15.0 minutes, a loopful of the inoculated test solution is subcultured into 5 ml of sterile nutrient broth and mixed with a vortex, the high dilution serving to stop the action of the compound. All of the subculture tubes are incubated at 37° C. and checked for signs of growth by turbidity at 1, 3, 5 and 7 days. The earliest subculture time at which no growth is present is considered the endpoint and is recorded as the sterilization time. An aliquot of 0.2 ml of the diluted culture is transferred to 5 ml of buffer to simulate 0.2 ml in 5 ml of test solution. (a) Purity: A loopful of the inoculated buffer is streaked onto nutrient agar to check colony morphology and lack of contaminants. (b) Viability: A loopful of the inoculated buffer is subcultured to 5 ml of nutrient broth as in the screen and incubated at 37° C. for 24 hours. (c) Dilution of the Test Solution: A loopful of the test solution is transferred to a 5 ml tube of nutrient broth, and a loopful of the inoculated buffer is transferred to the same tube of broth. […] (d) Purity of Organisms in the Test Solution: After the 15 minute subculture, a loopful of the inoculated test solution is streaked onto nutrient agar to insure that contamination has not occurred during the screen. (e) lack of Bactericidal Activity of Buffers and Other Solvents: Before a buffer or other solvent is used as a diluent, it is screened against the five organisms to insure that the buffer or solvent has no antibacterial activity itself.

Salmonella typhimurium = experiment: Contact germicidal screen, Salmonella typhimurium ATCC No. 13311
Procedure: as §1

Candida albican = experiment: Contact fungicidal screen, Candida albican; conditions: 0.1M NaOAc pH 4.6
Procedure: The organisms used in the Contact Fungicidal Screen are a dermatophyte, trychophyton mentagrophytes, frequently associated with athlete's foot; a yeast, Candida albican, causative agent of thrush and vaginitis; a phycomycete, Rhizopus oryzae, commonly known as black bread mold; an ascomycete, Aspergillus fumagatis, found in chicken droppings and causing lung infections; and another dermatophyte, Microsporum canis, which causes ringworm. These organisms are maintained as stock cultures at 4° C. on agar slants of the following composition: dextrose 2%, Neopeptone (Difco) 1%, agar 2%. Fluid medium of the same nutrient composition (without agar) was used to test the viability of the organisms after exposure to the fungicide. This medium is also known as Sabouraud's medium.
The Candida albican is grown in Sabouraud's liquid medium at 25°-30° C. for three days. At the end of the incubation period the cell suspension is centrifuged at 200 G and washed with sterile physiological saline (0.85% NaCl). The density of the cell suspension is determined by counting in a hemacytometer. The suspension is stored a 4° C. until it is used, at which time it is diluted with sterile physiological saline to a density of 5×10^6 cells per ml.
The compounds are weighed into heat sterilized 100 ml volumetric flasks and immediately before screening dissolved in 0.1 M NaOAc pH 4.6 buffer (test solutions).
The Aspergillus, Candida, Microsporum and Rhizopus species are screened in a slightly different manner. Basically, the procedure for the Contact Germicidal Efficiency Screen is utilized. After the test solutions are made up, 5 ml aliquots are pipetted into heat sterilized 25 ml glass stoppered erlenmeyer flasks. The screen is initiated when 0.5 ml of the 5×10^6 cell (spore) per ml suspension is added to the flask containing 5 ml of the test solution. At intervals of 0.5, 2.5, 5.0, 10.0 and 15.0 minutes, a 4 mm loopful of the inoculated test solution is subcultured into 7 mL of sterile fluid Sabouraud's medium and mixed on a vortex, the high dilution serving to stop the action of the compound. The subculture tubes are incubated at 25°-30° C. for ten days with daily observation for mycelial growth. The earliest subculture time at which no growth is present is considered the endpoint and is recorded as the sterilization time.
To insure the viability of the culture, a 0.5 ml aliquot of the 5×10^6 cells (spores) per ml suspension is transferred to 5 ml of the pH 4.6 buffer. A loopful of the inoculated buffer is then subcultured to 7 ml of fluid Sabouraud's medium and incubated at 25°-30° C. for ten days. To insure that the dilution of the test solution into the subculture medium does stop the action, a loopful of the test solution and a loopful of the inoculated buffer are transferred into the same subculture tube. This tube is also incubated at 25°-30° C. for ten days.

[2] = 10.0+ PPM, 0.1M NaOAc pH 4.6, screened simultaneously with four other compounds
[3] = 51.0 PPM, Triton X100 (10% solution):pH 4.6 buffer 1:1
[4] = 51.0 PPM, horse serum:pH 4.6 buffer 1:1
[5] = 300 PPM with 50% Horse Serum, 0.1M NaOAc pH 4.6
[6] = 300 PPM with 50% Triton X100, 0.1M NaOAc pH 4.6
[7] = 300 PPM, pH 4.6 buffer with 10% serum
[8] = 300 PPM, pH 4.6 buffer with 20% serum
[9] = 300 PPM, pH 4.6 buffer with 35% serum
[10] = 304.6 PPM, horse serum:pH 4.6 buffer 1:1
[11] = 304.8 PPM, Triton X100 (10% solution):pH 4.6 buffer 1:1
[12] = 606.9 PPM, pH 4.6 buffer with 33% serum
[13] = 899.25 PPM, pH 4.6 buffer with 25% serum
[14] = 1000 PPM with 50% Horse Serum, 0.1M NaOAc pH 4.6
[15] = 1001.2 PPM, horse serum:pH 4.6 buffer 1:1
[16] = 1016.0 PPM, 0.1M NaH2PO4 pH 7.0
[17] = 308.0 PPM, Triton X100 (10% solution):pH 4.6 buffer 1:1
[18] = 308.0 PPM, horse serum:pH 4.6 buffer 1:1
[19] = 1000.0 PPM, horse serum:pH 4.6 buffer 1:1
[20] = 1012.3 PPM, 0.1M NaH2PO4 pH 7.0

SMILES: CC(C)(CC(=O)O)N(Cl)Cl [(II)]
- Sterilization Time ([1]; 1.8 PPM, 0.1M NaOAc pH 4.6): 15 min
- Sterilization Time ([1]; 4.5 PPM, 0.1M NaOAc pH 4.6): 10.0 min
- Sterilization Time [1, 2]: 2.5 min
- Sterilization Time (summary) ([1]; 10 PPM, 0.1M NaOAc pH 4.6): 2.5 min
- Sterilization Time ([1]; 10.0 PPM, 0.1M NaOAc pH 4.6): 5.0 min
- Sterilization Time ([1]; 12.2 PPM, 0.1M NaOAc pH 4.6): 2.5 min
- Sterilization Time ([1]; 32.1 PPM, 0.1M NaOAc pH 4.6): 2.5 min
- Sterilization Time [1, 3]: 2.5 min
- Sterilization Time [1, 4]: 15 min
- Sterilization Time ([1]; 71.7 PPM, 0.1M NaOAc pH 4.6): 0.5 min
- Sterilization Time (summary) ([1]; 100 PPM, 0.1M NaOAc pH 4.6): 0.5 min
- Sterilization Time ([1]; 104.7 PPM, 0.1M NaOAc pH 4.6): 0.5 min
- Sterilization Time ([1]; 107.8 PPM, 0.1M NaH2PO4 pH 7.0): 15.0 min
- Sterilization Time ([1]; 298.9 PPM, 0.1M NaOAc pH 4.6): 0.5 min
- Sterilization Time (summary) [1, 5]: 15 min
- Sterilization Time (summary) [1, 6]: 0.5 min
- Sterilization Time [1, 7]: 0.5 min
- Sterilization Time [1, 8]: 2.5 min
- Sterilization Time [1, 9]: 15.0 min
- Sterilization Time [1, 10]: 15 min
- Sterilization Time [1, 11]: 0.5 min
- Sterilization Time ([1]; 316.6 PPM, 0.1M NaH2PO4 pH 7.0): 10.0 min
- Sterilization Time [1, 12]: 0.5 min
- Sterilization Time [1, 13]: 0.5 min
- Sterilization Time (summary) [1, 14]: 0.5 min
- Sterilization Time (summary) ([1]; 1000 PPM, 0.1M NaOAc pH 4.6): 0.5 min
- Sterilization Time [1, 15]: 0.5 min
- Sterilization Time ([1]; 1014.8 PPM, 0.1M NaOAc pH 4.6): 0.5 min
- Sterilization Time [1, 16]: 2.5 min
- Sterilization Time (Salmonella typhimurium; 1.8 PPM, 0.1M NaOAc pH 4.6): 5.0 min
- Sterilization Time (Salmonella typhimurium; 4.5 PPM, 0.1M NaOAc pH 4.6): 2.5 min
- Sterilization Time (Salmonella typhimurium; [2]): 0.5 min
- Sterilization Time (summary) (Salmonella typhimurium; 10 PPM, 0.1M NaOAc pH 4.6): 0.5 min
- Sterilization Time (Salmonella typhimurium; 10.0 PPM, 0.1M NaOAc pH 4.6): 0.5 min
- Sterilization Time (Salmonella typhimurium; 12.2 PPM, 0.1M NaOAc pH 4.6): 0.5 min
- Sterilization Time (Salmonella typhimurium; 32.1 PPM, 0.1M NaOAc pH 4.6): 0.5 min
- Sterilization Time (Salmonella typhimurium; [3]): 0.5 min
- Sterilization Time (Salmonella typhimurium; [4]): 15 min
- Sterilization Time (Salmonella typhimurium; 71.7 PPM, 0.1M NaOAc pH 4.6): 0.5 min
- Sterilization Time (summary) (Salmonella typhimurium; 100 PPM, 0.1M NaOAc pH 4.6): 0.5 min
- Sterilization Time (Salmonella typhimurium; 104.7 PPM, 0.1M NaOAc pH 4.6): 0.5 min
- Sterilization Time (Salmonella typhimurium; 107.8 PPM, 0.1M NaH2PO4 pH 7.0): 2.5 min
- Sterilization Time (Salmonella typhimurium; 298.9 PPM, 0.1M NaOAc pH 4.6): 0.5 min
- Sterilization Time (summary) (Salmonella typhimurium; [5]): 2.5 min
- Sterilization Time (summary) (Salmonella typhimurium; [6]): 0.5 min
- Sterilization Time (Salmonella typhimurium; [7]): 0.5 min
- Sterilization Time (Salmonella typhimurium; [8]): 0.5 min
- Sterilization Time (Salmonella typhimurium; [9]): 2.5 min
- Sterilization Time (Salmonella typhimurium; [10]): 2.5 min
- Sterilization Time (Salmonella typhimurium; [11]): 0.5 min
- Sterilization Time (Salmonella typhimurium; 316.6 PPM, 0.1M NaH2PO4 pH 7.0): 2.5 min
- Sterilization Time (Salmonella typhimurium; [12]): 0.5 min
- Sterilization Time (Salmonella typhimurium; [13]): 0.5 min
- Sterilization Time (summary) (Salmonella typhimurium; [14]): 0.5 min
- Sterilization Time (summary) (Salmonella typhimurium; 1000 PPM, 0.1M NaOAc pH 4.6): 0.5 min
- Sterilization Time (Salmonella typhimurium; [15]): 0.5 min
- Sterilization Time (Salmonella typhimurium; 1014.8 PPM, 0.1M NaOAc pH 4.6): 0.5 min
- Sterilization Time (Salmonella typhimurium; [16]): 0.5 min
- Sterilization Time (Candida albican; 10 PPM): 15 min
- Sterilization Time (Candida albican; 100 PPM): 15 min
- Sterilization Time (Candida albican; 1000 PPM): 2.5 min

SMILES: CC(C)(CCC(=O)O)N(Cl)Cl [(III), 4-Dichloroamino-4-methylvaleric acid]
- Sterilization Time ([1]; 9.6 PPM, 0.1M NaOAc pH 4.6): 5.0 min
- Sterilization Time ([1]; 9.7 PPM, 0.1M NaH2PO4 pH 7.0): 15 min
- Sterilization Time [1, 2]: 10.0 min
- Sterilization Time (summary) ([1]; 10 PPM, 0.1M NaOAc pH 4.6): 10.0 min
- Sterilization Time (summary) ([1]; 100 PPM, 0.1M NaOAc pH 4.6): 0.5 min
- Sterilization Time ([1]; 102.2 PPM, 0.1M NaOAc pH 4.6): 0.5 min
- Sterilization Time ([1]; 103.5 PPM, 0.1M NaH2PO4 pH 7.0): 15 min
- Sterilization Time (summary) [1, 5]: 10.0 min
- Sterilization Time (summary) [1, 6]: 2.5 min
- Sterilization Time [1, 17]: 2.5 min
- Sterilization Time [1, 18]: 10.0 min
- Sterilization Time (summary) [1, 14]: 2.5 min
- Sterilization Time (summary) ([1]; 1000 PPM, 0.1M NaOAc pH 4.6): 0.5 min
- Sterilization Time [1, 19]: 2.5 min
- Sterilization Time ([1]; 1007.7 PPM, 0.1M NaOAc pH 4.6): 0.5 min
- Sterilization Time [1, 20]: 5.0 min
- Sterilization Time (Salmonella typhimurium; 9.6 PPM, 0.1M NaOAc pH 4.6): 2.5 min
- Sterilization Time (Salmonella typhimurium; 9.7 PPM, 0.1M NaH2PO4 pH 7.0): 15 min
- Sterilization Time (Salmonella typhimurium; [2]): 2.5 min
- Sterilization Time (summary) (Salmonella typhimurium; 10 PPM, 0.1M NaOAc pH 4.6): 2.5 min
- Sterilization Time (summary) (Salmonella typhimurium; 100 PPM, 0.1M NaOAc pH 4.6): 0.5 min
- Sterilization Time (Salmonella typhimurium; 102.2 PPM, 0.1M NaOAc pH 4.6): 0.5 min
- Sterilization Time (Salmonella typhimurium; 103.5 PPM, 0.1M NaH2PO4 pH 7.0): 5.0 min
- Sterilization Time (summary) (Salmonella typhimurium; [5]): 2.5 min
- Sterilization Time (summary) (Salmonella typhimurium; [6]): 0.5 min
- Sterilization Time (Salmonella typhimurium; [17]): 0.5 min
- Sterilization Time (Salmonella typhimurium; [18]): 2.5 min
- Sterilization Time (summary) (Salmonella typhimurium; [14]): 0.5 min
- Sterilization Time (summary) (Salmonella typhimurium; 1000 PPM, 0.1M NaOAc pH 4.6): 0.5 min
- Sterilization Time (Salmonella typhimurium; [19]): 0.5 min
- Sterilization Time (Salmonella typhimurium; 1007.7 PPM, 0.1M NaOAc pH 4.6): 0.5 min
- Sterilization Time (Salmonella typhimurium; [20]): 0.5 min
- Sterilization Time (Candida albican; 10 PPM): 15 min
- Sterilization Time (Candida albican; 100 PPM): 15 min
- Sterilization Time (Candida albican; 1000 PPM): 0.5 min
